This test deals with free thiol content in NRF2-proficient BV-2 cells. The experiment in a line: Thiol quantification assay in BV-2 cells. It is filed as cell-based, mouse. The procedure:
The anti-inflammatory activity of the STCs was determined in E. coli lipopolysaccharide (LPSEc; Sigma Aldrich, USA)-induced inflammation in NRF2-proficient and NRF2 siRNA-transfected mouse microglial (BV-2) cells. The NRF2 was silenced in BV-2 cells using NRF2 siRNA (Santa Cruz Biotechnology, Dallas, TX, USA) in Opti-MEM transfection medium (Thermo Fisher Scientific, USA) using Lipofectamine^TM LTX reagent with PLUS^TM reagent (Thermo Fisher Scientific, USA) following the manufacturer’s protocol and reported method. The cells (5 × 10^5 cells/well) were allowed to form a monolayer by incubating them for 24 h and then adding LPSEc (200 ng/mL) for 4 h. […] The nitric oxide (NO) level in cell supernatant was determined using the Griess reagent kit (Thermo Fisher Scientific, USA). The levels of proinflammatory cytokines (IL-1β, IL-6, IFN-γ, and TNF-α) in cell supernatant solutions were determined using commercially available ELISA kits (Abcam, Cambridge, UK). […] The protein concentration was determined using Bradford’s assay kit (Thermo Fisher Scientific, USA) following the manufacturer’s instructions. The expression of COX-2, NF-κB p65, NRF2, and HO-1 in cell lysates was determined using commercially available ELISA kits (Abcam, St, Louis, Missouri, USA) following the manufacturer’s protocol. In addition, the thiol content was determined using a thiol quantification assay kit (Abcam, USA).

For the compound `CCCCC/C=C/C(=O)CCc1ccc(O)c(OC)c1` [6-shogaol, reference compound], the free thiol content (NRF2-proficient BV-2 cells, untreated cells = 100%) was found to be 35.03 ± 3.70%.
`COc1cc(CCC(=O)/C=C/c2cc(-c3ccccc3)cs2)ccc1O` [STC5, (E)-5-(4-Hydroxy-3-methoxyphenyl)-1-(4-phenylthiophen-2-yl)pent-1-en-3-one]: under “versus 6-shogaol”, the “reactivity with thiols lower than that of 6-shogaol” value is on record as “about 70%”.

Values taken from publication PMC9951879, “Synthesis of New Shogaol Analogues as NRF2 Activators and Evaluation of Their Anti-Inflammatory Activity, Modes of Action and Metabolic Stability” (Antioxidants, 2023).
